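Compound exposure: 48 hours, 5 concentrations, 96-well plates. GI50: concentration for 50% inhibition of growth. TGI marks complete inhibition of growth.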
Key:
Assay in all cases: inhibition of tumour cell growth, NCI panel, 48 h
[1] = tested on: MOLT-4 leukemia
[2] = tested on: HL-60(TB) leukemia
[3] = tested on: NCI-H522 lung
[4] = tested on: SK-MEL-5 melanoma
[5] = tested on: HCC-2998 colon
[6] = tested on: SNB-19 CNS
[7] = tested on: HCT-15 colon
[8] = tested on: SK-MEL-28 melanoma
[9] = tested on: 786-0 renal
[10] = tested on: CAKI-1 renal
[11] = tested on: NCI-H23 lung
[12] = tested on: SW-620 colon
[13] = tested on: UACC-62 melanoma
[14] = tested on: ACHN renal
[15] = tested on: HOP-92 NSCLC
[16] = tested on: MDA-MB-231 breast
[17] = tested on: COLO 205 colon
[18] = tested on: BT-549 breast
[19] = tested on: EKVX NSCLC
[20] = tested on: DU-145 prostate
[21] = tested on: OVCAR-5 ovarian
[22] = tested on: SN12C renal
[23] = tested on: OVCAR-3 ovarian
[24] = tested on: T-47D breast
[25] = tested on: MALME-3M melanoma
[26] = tested on: MDA-MB-435
[27] = tested on: M14 melanoma
[28] = tested on: RXF 393 renal
[29] = tested on: NCI-H226 lung
[30] = tested on: SF-268 CNS
[31] = tested on: LOX IMVI melanoma
[32] = tested on: HT29 colon
[33] = tested on: IGROV1 ovarian
[34] = tested on: KM12 colon
[35] = tested on: K-562 leukemia
[36] = tested on: A498 renal
[37] = tested on: UO-31 renal
[38] = tested on: A549 NSCLC
[39] = tested on: HS 578T breast
[40] = tested on: U251 CNS
[41] = tested on: TK-10 renal
[42] = tested on: SF-295 CNS
[43] = tested on: OVCAR-8 ovarian
[44] = tested on: RPMI-8226 leukemia
[45] = tested on: NCI/ADR-RES ovarian
[46] = tested on: MCF7 breast
[47] = tested on: SK-OV-3 ovarian
[48] = tested on: CCRF-CEM leukemia
[49] = tested on: SNB-75 CNS
[50] = tested on: SF-539 CNS
[51] = tested on: HOP-62 NSCLC
[52] = tested on: UACC-257 melanoma
[53] = tested on: NCI-H460 lung
[54] = tested on: HCT-116 colon
[55] = tested on: OVCAR-4 ovarian
[56] = tested on: PC-3 prostate

CN1C(=O)C23CC4(C56CC78SSC(CO)(C(=O)N7C5Nc5ccccc56)N(C)C8=O)c5ccccc5NC4N2C(=O)C1(CO)SS3 (configuration not stated)
GI50 [1]: 34.3 nM | TGI [1]: 3500 nM | GI50 [2]: 85.3 nM | TGI [2]: 50000 nM | GI50 [3]: 115 nM | TGI [3]: 329 nM | GI50 [4]: 39.3 nM | TGI [4]: 112 nM | GI50 [5]: 46 nM | TGI [5]: 132 nM | GI50 [6]: 192 nM | TGI [6]: 643 nM | GI50 [7]: 35.3 nM | TGI [7]: 411 nM | GI50 [8]: 23.5 nM | TGI [8]: 69.5 nM | GI50 [9]: 78.6 nM | TGI [9]: 172 nM | GI50 [10]: 56.1 nM | TGI [10]: 290 nM | GI50 [11]: < 31.5 nM | TGI [11]: 76.4 nM | GI50 [12]: 37.2 nM | TGI [12]: 167 nM | GI50 [13]: 62.2 nM | TGI [13]: 153 nM | GI50 [14]: 71.5 nM | TGI [14]: 443 nM | GI50 [15]: 103 nM | TGI [15]: 461 nM | GI50 [16]: 130 nM | TGI [16]: 653 nM | GI50 [17]: 19.5 nM | TGI [17]: 76 nM | GI50 [18]: 106 nM | TGI [18]: 347 nM | GI50 [19]: 89.2 nM | TGI [19]: 526 nM | GI50 [20]: 29.6 nM | TGI [20]: 195 nM | GI50 [21]: 81.3 nM | TGI [21]: 294 nM | GI50 [22]: 124 nM | TGI [22]: 673 nM | GI50 [23]: 50.7 nM | TGI [23]: 218 nM | GI50 [24]: 21.3 nM | TGI [24]: 135 nM | GI50 [25]: 17.7 nM | TGI [25]: 74.5 nM | GI50 [26]: 68.5 nM | TGI [26]: 146 nM | GI50 [27]: 71.7 nM | TGI [27]: 205 nM | GI50 [28]: 12.9 nM | TGI [28]: 42 nM | GI50 [29]: 130 nM | TGI [29]: 359 nM | GI50 [30]: 80.7 nM | TGI [30]: 351 nM | GI50 [31]: 52.1 nM | TGI [31]: 243 nM | GI50 [32]: 17.6 nM | TGI [32]: 162 nM | GI50 [33]: 98.7 nM | TGI [33]: 279 nM | GI50 [34]: 54.4 nM | TGI [34]: 220 nM | GI50 [35]: 524 nM | TGI [35]: 3640 nM | GI50 [36]: 74.8 nM | TGI [36]: 155 nM | GI50 [37]: 111 nM | TGI [37]: 342 nM | GI50 [38]: 48 nM | TGI [38]: 283 nM | GI50 [39]: 52.9 nM | TGI [39]: 191 nM | GI50 [40]: 46.4 nM | TGI [40]: 193 nM | GI50 [41]: 119 nM | TGI [41]: 359 nM | GI50 [42]: 49.7 nM | TGI [42]: 135 nM | GI50 [43]: 23 nM | TGI [43]: 185 nM | GI50 [44]: 56.3 nM | TGI [44]: 3160 nM | GI50 [45]: 48.2 nM | TGI [45]: 189 nM | GI50 [46]: 14.5 nM | TGI [46]: 122 nM | GI50 [47]: 103 nM | TGI [47]: 291 nM | GI50 [48]: 21.9 nM | TGI [48]: 3040 nM | GI50 [49]: 99.3 nM | TGI [49]: 289 nM | GI50 [50]: 29.1 nM | TGI [50]: 64.9 nM | GI50 [51]: 124 nM | TGI [51]: 368 nM | GI50 [52]: 37.2 nM | TGI [52]: 113 nM | GI50 [53]: 52.3 nM | TGI [53]: 191 nM | GI50 [54]: 32.9 nM | TGI [54]: 313 nM | GI50 [55]: 57.6 nM | TGI [55]: 237 nM | GI50 [56]: 38.8 nM | TGI [56]: 537 nM

From PubChem BioAssay (NCI)
